The text below walks through data of patent US9650340B2, “5-fluoro-N-(pyridin-2-yl)pyridin-2-amine derivatives containing a sulfoximine group” (BAYER PHARMA AKTIENGESELLSCHAFT, priority 2012, dated 2017).

The structures appear in SMILES notation. Like-named read-outs stand apart in the source and are kept apart here.

Data set [1] relates to HeLa-MaTu-ADR, multidrug-resistant human cervical carcinoma cells. The data set is described as follows: Proliferation assay, HeLa-MaTu-ADR (crystal violet). Type of data set: cell-based. The settings on record: 4 days, read-out: Inhibition of HeLa-MaTu-ADR cell proliferation IC50. As for the experimental part:
(§1) Cultivated tumour cells (HeLa, human cervical tumour cells, ATCC CCL-2; NCI-H460, human non-small cell lung carcinoma cells, ATCC HTB-177; A2780, human ovarian carcinoma cells, ECACC #93112519; DU 145, hormone-independent human prostate carcinoma cells, ATCC HTB-81; HeLa-MaTu-ADR, multidrug-resistant human cervical carcinoma cells, EPO-GmbH Berlin; Caco-2, human colorectal carcinoma cells, ATCC HTB-37; B16F10, mouse melanoma cells, ATCC CRL-6475) were plated at a density of 5,000 cells/well (DU145, HeLa-MaTu-ADR), 3,000 cells/well (NCI-H460, HeLa), 2,500 cells/well (A2780), 1,500 cells/well (Caco-2), or 1,000 cells/well (B16F10) in a 96-well multititer plate in 200 μL of their respective growth medium supplemented 10% fetal calf serum. After 24 hours, the cells of one plate (zero-point plate) were stained with crystal violet (see below), while the medium of the other plates was replaced by fresh culture medium (200 μl), to which the test substances were added in various concentrations (0 μM, as well as in the range of 0.001-10 μM; the final concentration of the solvent dimethyl sulfoxide was 0.5%). The cells were incubated for 4 days in the presence of test substances. Cell proliferation was determined by staining the cells with crystal violet: the cells were fixed by adding 20 μl/measuring point of an 11% glutaric aldehyde solution for 15 minutes at room temperature. After three washing cycles of the fixed cells with water, the plates were dried at room temperature. The cells were stained by adding 100 μl/measuring point of a 0.1% crystal violet solution (pH 3.0). After three washing cycles of the stained cells with water, the plates were dried at room temperature. The dye was dissolved by adding 100 μl/measuring point of a 10% acetic acid solution. The extinction was determined by photometry at a wavelength of 595 nm. The change of cell number, in percent, was calculated by normalization of the measured values to the extinction values of the zero-point plate (=0%) and the extinction of the untreated (0 μm) cells (=100%). The IC50 values (inhibitory concentration at 50% of maximal effect) were determined by means of a 4 parameter fit. Non-adherent MOLM-13 human acute myeloid leukemia cells (DSMZ ACC 554) were seeded at a density of 5,000 cells/well in a 96-well multititer plate in 100 μL of growth medium supplemented 10% fetal calf serum. After 24 hours, cell viability of one plate (zero-point plate) was determined with the Cell Titre-Glo Luminescent Cell Viability Assay (Promega), while 50 μL of test compound containing medium was added to the wells of the other plates (final concentrations in the range of 0.001-10 μM and DMSO controls; the final concentration of the solvent dimethyl sulfoxide was 0.5%). Cell viability was assessed after 72-hour exposure with the Cell Titre-Glo Luminescent Cell Viability Assay (Promega).

Data set [2] has as its system Caco-2, human colorectal carcinoma cells. Briefly: Proliferation assay, Caco-2 (crystal violet). Type of data set: cell-based. The settings on record: Caco-2, 4 days, read-out: Inhibition of Caco-2 cell proliferation IC50. The protocol:
as §1

For data set [3], the system named is HeLa, human cervical tumour cells. Briefly: Proliferation assay, HeLa (crystal violet). Type of data set: cell-based. The settings on record: 4 days, read-out: Inhibition of HeLa cell proliferation IC50. The protocol: as §1
The subject of data set [4] is A2780, human ovarian carcinoma cells. Briefly: Proliferation assay, A2780 (crystal violet). Type of data set: cell-based. The settings on record: A2780, 4 days, read-out: Inhibition of A2780 cell proliferation IC50. As for the experimental part:
as §1

For data set [5], the system named is DU 145, hormone-independent human prostate carcinoma cells. Briefly: Proliferation assay, DU145 (crystal violet). Type of data set: cell-based. The settings on record: DU145, 4 days, read-out: Inhibition of DU145 cell proliferation IC50. As for the experimental part: as §1
Data set [6] relates to MOLM-13 human acute myeloid leukemia cells. Briefly: Proliferation assay, MOLM-13 (Cell Titre-Glo). Conditions: MOLM-13, 72-hour exposure, read-out: Inhibition of MOLM-13 cell proliferation IC50. It counts as cell-based. As for the experimental part: as §1
Data set [7] concerns B16F10, mouse melanoma cells. Briefly: Proliferation assay, B16F10 (crystal violet). Type of data set: cell-based. Conditions: B16F10, 4 days, read-out: Inhibition of B16F10 cell proliferation IC50. As for the experimental part:
as §1

Data set [8] concerns NCI-H460, human non-small cell lung carcinoma cells. The data set is described as follows: Proliferation assay, NCI-H460 (crystal violet). It counts as cell-based. The settings on record: NCI-H460, 4 days, read-out: Inhibition of NCI-H460 cell proliferation IC50. As for the experimental part: as §1
Data set [9] in a line: Equilibrium shake flask solubility assay, thermodynamic solubility in citrate buffer pH 4. It counts as physicochemical. Conditions: citrate buffer, pH 4, aqueous buffer, thermodynamic from solid, citrate buffer pH 4, 24 h, room temperature; read-out: Solubility in aqueous Citrate buffer pH4. The protocol:
4b) Thermodynamic Solubility in Citrate Buffer pH 4
Thermodynamic solubility was determined by an equilibrium shake flask method [Literature: Edward H. Kerns and Li Di (2008) Solubility Methods in: Drug-like Properties: Concepts, Structure Design and Methods, p276-286. Burlington, Mass.: Academic Press].
A saturated solution of the drug was prepared and the solution was mixed for 24 h to ensure that equilibrium has been reached. The solution was centrifuged to remove the insoluble fraction and the concentration of the compound in solution was determined using a standard calibration curve.
To prepare the sample, 1.5 mg solid compound was weighed in a 4 ml glass vial. 1 ml Citrate buffer pH 4 was added. The suspension was put on a stirrer and mixed for 24 hrs at room temperature. The solution was centrifuged afterwards. To prepare the sample for the standard calibration, 0.6 mg solid sample was dissolved in 19 ml acetonitrile/water 1:1. After sonification the solution was filled up with acetonitrile/water 1:1 to 20 ml.
Sample and standards were quantified by HPLC with UV-detection. For each sample two injection volumes (5 and 50 μl) in triplicates were made. Three injection volumes (5 μl, 10 μl and 20 μl) were made for the standard.
The areas of sample- and standard injections as well as the calculation of the solubility value (in mg/l) were determined by using HPLC software (Waters Empower 2 FR).

In the case of `COc1cc(CS(C)(=N)=O)cc(Nc2cc(-c3ccc(F)cc3OC)c(F)cn2)n1` (racemic) [Example 6, (rac)-5-Fluoro-4-(4-fluoro-2-methoxyphenyl)-N-{6-methoxy-4-[(S-methylsulfonimidoyl)methyl]pyridin-2-yl}pyridin-2-amine], the IC50 is 30 nM in [1] (Homo sapiens, 96 h); 31 nM in data set [2] (Homo sapiens, Caco-2, 96 h); 21 nM in data set [3] (Homo sapiens, 96 h); 11 nM in data set [4] (Homo sapiens, A2780, 96 h); 30 nM in data set [5] (Homo sapiens, DU-145, 96 h); 11 nM in [6] (Homo sapiens, MOLM-13, 72 h). In addition, the IC50 was 33 nM in data set [7] (Mus musculus, B16-F10, 96 h) and 33 nM in [8] (Homo sapiens, NCI-H460, 96 h).
As to `COc1cc(F)ccc1-c1cc(Nc2cc(CS(C)(=N)=O)cc(Cl)n2)ncc1F` (racemic) [Example 7, (rac)-N-{6-Chloro-4-[(S-methylsulfonimidoyl)methyl]pyridin-2-yl}-5-fluoro-4-(4-fluoro-2-methoxyphenyl)pyridin-2-amine], the IC50 in data set [1] (Homo sapiens, 96 h) turned out to be 32 nM; in data set [2] (Homo sapiens, Caco-2, 96 h) it was 41 nM; in data set [3] (Homo sapiens, 96 h), 32 nM; in data set [4] (Homo sapiens, A2780, 96 h), 27 nM; in [5] (Homo sapiens, DU-145, 96 h), 37 nM; in [6] (Homo sapiens, MOLM-13, 72 h), 28 nM. For the same compound, the IC50 in data set [7] (Mus musculus, B16-F10, 96 h) stood at 34 nM; in data set [8] (Homo sapiens, NCI-H460, 96 h), 47 nM.
As to `COc1cc(F)ccc1-c1cc(Nc2cc(CS(C)(=O)=NC(C)=O)ccn2)ncc1F` (racemic) [Example 13, (rac)-N-{[(2-{[5-Fluoro-4-(4-fluoro-2-methoxyphenyl)pyridin-2-yl]amino}pyridin-4-yl)methyl](methyl)oxido-λ^6-sulfanylidene}acetamide], the IC50 in [1] (Homo sapiens, 96 h) came to 110 nM; in [2] (Homo sapiens, Caco-2, 96 h), 120 nM; in data set [3] (Homo sapiens, 96 h), 100 nM; in [4] (Homo sapiens, A2780, 96 h), 23 nM; in data set [5] (Homo sapiens, DU-145, 96 h), 110 nM; in data set [6] (Homo sapiens, MOLM-13, 72 h), 29 nM. The IC50 in data set [7] (Mus musculus, B16-F10, 96 h) stood at 180 nM; in data set [8] (Homo sapiens, NCI-H460, 96 h), 110 nM.
Turning to `COc1cc(F)ccc1-c1cc(Nc2cc(CS(C)(=N)=O)cc(C(F)(F)F)n2)ncc1F` (racemic) [Example 21, (rac)-5-Fluoro-4-(4-fluoro-2-methoxyphenyl)-N-{4-[(S-methylsulfonimidoyl)methyl]-6-(trifluoromethyl)pyridin-2-yl}pyridin-2-amine], the IC50 amounted to 30 nM in data set [1] (Homo sapiens, 96 h); 32 nM in data set [2] (Homo sapiens, Caco-2, 96 h); 29 nM in data set [3] (Homo sapiens, 96 h); 17 nM in data set [4] (Homo sapiens, A2780, 96 h); 30 nM in [5] (Homo sapiens, DU-145, 96 h); 17 nM in [6] (Homo sapiens, MOLM-13, 72 h). The IC50 turned out to be 38 nM in data set [7] (Mus musculus, B16-F10, 96 h) and 33 nM in [8] (Homo sapiens, NCI-H460, 96 h).
Regarding `CCOc1cc(F)ccc1-c1cc(Nc2cc(CS(C)(=N)=O)cc(F)n2)ncc1F` (racemic) [Example 26, (rac)-4-(2-Ethoxy-4-fluorophenyl)-5-fluoro-N-{6-fluoro-4-[(S-methylsulfonimidoyl)methyl]pyridin-2-yl}pyridin-2-amine], the IC50 amounted to 49 nM in [1] (Homo sapiens, 96 h); 86 nM in [2] (Homo sapiens, Caco-2, 96 h); 43 nM in [3] (Homo sapiens, 96 h); 36 nM in [4] (Homo sapiens, A2780, 96 h); 110 nM in data set [5] (Homo sapiens, DU-145, 96 h); 44 nM in data set [6] (Homo sapiens, MOLM-13, 72 h). Besides, the IC50 in data set [7] (Mus musculus, B16-F10, 96 h) was found to be 150 nM; in [8] (Homo sapiens, NCI-H460, 96 h) it was 120 nM.
As to `COc1cc(F)ccc1-c1cc(Nc2cc(CS(C)(=N)=O)ccn2)ncc1F` (single isomer, unassigned; (+)) [Example 2, (+)-5-Fluoro-4-(4-fluoro-2-methoxyphenyl)-N-{4-[(S-methylsulfonimidoyl)methyl]pyridin-2-yl}pyridin-2-amine], the IC50 came to 33 nM in data set [1]; 62 nM in data set [2]; 110 nM in data set [3]; 110 nM in [4]; 33 nM in data set [5]; 29 nM in data set [6] (Homo sapiens, MOLM-13, 72 h). Besides, the IC50 came to 240 nM in [7] and 75 nM in data set [8].
Regarding `COc1cc(F)ccc1-c1cc(Nc2cc(CS(C)(=N)=O)cc(C)n2)ncc1F` (single isomer, unassigned; (+)) [Example 32, (+)-5-Fluoro-4-(4-fluoro-2-methoxyphenyl)-N-{6-methyl-4-[(S-methylsulfonimidoyl)methyl]pyridin-2-yl}pyridin-2-amine], the IC50 worked out at 53 nM in [1] (Homo sapiens, 96 h); 40 nM in data set [2] (Homo sapiens, Caco-2, 96 h); 31 nM in [3] (Homo sapiens, 96 h); 10 nM in [4] (Homo sapiens, A2780, 96 h); 38 nM in [5] (Homo sapiens, DU-145, 96 h); 17 nM in [6] (Homo sapiens, MOLM-13, 72 h). Moreover, the IC50 was determined as 98 nM in data set [7] (Mus musculus, B16-F10, 96 h) and 100 nM in data set [8].
For `COc1cc(F)ccc1-c1cc(Nc2cc(CS(C)(=N)=O)cc(C)n2)ncc1F` (single isomer, unassigned; (-)) [Example 33, (−)-5-Fluoro-4-(4-fluoro-2-methoxyphenyl)-N-{6-methyl-4-[(S-methylsulfonimidoyl)methyl]pyridin-2-yl}pyridin-2-amine], the IC50 came out at 27 nM in [1]; 30 nM in data set [2]; 19 nM in data set [3]; 31 nM in [5]; 23 nM in data set [6]; 54 nM in [7]. Further, the IC50 in data set [8] was determined as 30 nM.
As to `COc1cc(F)ccc1-c1cc(Nc2cc(CS(C)(=N)=O)ccn2)ncc1F.Cl` (single isomer, unassigned; enantiomer 2) [Example 14, 5-Fluoro-4-(4-fluoro-2-methoxyphenyl)-N-{4-[(S-methylsulfonimidoyl)methyl]pyridin-2-yl}pyridin-2-amine hydrochloride; enantiomer 2], the IC50 was 46 nM in data set [1]; 37 nM in data set [2]; 42 nM in data set [3]; 33 nM in data set [5]; 73 nM in data set [7]; 30 nM in [8]. Further, in [9], the solubility at 24 h was determined as 600 µg/mL.

In general, solubility refers to the concentration that dissolves in the medium under given conditions.
